Data published in patent US8383637B2, “2-amino-quinazoline derivatives useful as inhibitors of β-secretase (BACE)” (Jansssen Pharmaceutica N.V., priority 2004, dated 2013).
Values joined by “and” are separate entries in the source; they are usually repeats but may differ in a detail not shown here. Equal values may be shown once. Read-outs that look alike come from different tables or passages of the source.

Assays:
Type in all cases: biochemical
β-secretase(BACE) [1] = target: T1, β-secretase(BACE) (Homo sapiens, UniProt P56817); test: BACE FS1% Inhibition Assay; settings: FS1 substrate; for inhibition at 3 µM / % Inhibition (FS) 3 μM: 3 μM test compound; for inhibition at 3 µM: read-out: % Inhibition (FS) 3 μM; for inhibition at 0.3 µM / % Inhibition (FS) 0.3 μM: 0.3 μM test compound; for inhibition at 0.3 µM: read-out: % Inhibition (FS) 0.3 μM; for inhibition at 1 µM / % Inhibition (FS) 1 μM: 1 μM test compound; for inhibition at 1 µM: read-out: % Inhibition (FS) 1 μM
T1 construct: purchased Panvera
How it was run: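 Human BACE (4 μg/mL working solution) preincubated 20 min at room temperature with compound, then FS1 substrate (300 μg/mL working solution) added and incubated 1 h at room temperature. Percent inhibition calculated at each compound concentration against blank and vehicle controls.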

β-secretase(BACE) [2] = target: T1, β-secretase(BACE); test: BACE Assay-1 (MCA-substrate, IC50)
How it was run: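 Human BACE (work solution 10 μg/mL) with MCA-peptide substrate (stock 2.0 mg/mL) in 0.05 M citrate buffer, pH 5.0, with PEG8000. Fluorescence read at T0 and T60; compounds tested at multiple concentrations and IC50 calculated from these readings.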

β-secretase(BACE) [3] = target: T1, β-secretase(BACE); test: BACE Assay-2 (FS1 substrate, IC50 and Ki); settings: procedure of Example 159, FS1 substrate
[4] = procedure of Example 158, read-out: IC50 μM (158)

T1 sequence (P56817 46-501): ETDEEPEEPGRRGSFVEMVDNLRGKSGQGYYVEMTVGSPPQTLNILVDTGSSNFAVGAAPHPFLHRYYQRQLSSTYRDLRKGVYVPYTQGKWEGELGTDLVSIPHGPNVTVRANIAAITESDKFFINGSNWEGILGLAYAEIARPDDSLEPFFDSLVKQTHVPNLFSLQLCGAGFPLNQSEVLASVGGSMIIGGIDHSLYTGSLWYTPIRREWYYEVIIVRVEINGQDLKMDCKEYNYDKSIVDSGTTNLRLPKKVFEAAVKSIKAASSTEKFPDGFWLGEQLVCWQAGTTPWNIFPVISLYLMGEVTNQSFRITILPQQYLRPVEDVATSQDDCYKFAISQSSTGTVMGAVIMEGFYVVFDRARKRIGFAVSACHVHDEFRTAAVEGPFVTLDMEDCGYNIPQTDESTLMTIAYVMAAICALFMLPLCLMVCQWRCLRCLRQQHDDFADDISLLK

| Compound | inhibition at 3 µM (β-secretase(BACE) [1]) [%] | inhibition at 10 µM (β-secretase(BACE) [1]; 10 μM test compound, read-out: % Inhibition (FS) 10 μM) [%] | IC50 (β-secretase(BACE) [2]; [4]) [µM] | Ki (β-secretase(BACE) [3]; read-out: Ki μM (159)) | inhibition at 0.3 µM (β-secretase(BACE) [1]) [%] | inhibition at 1 µM (β-secretase(BACE) [1]) [%] | % Inhibition (FS) 0.3 μM (β-secretase(BACE) [1]; 0.3 µM) | % Inhibition (FS) 1 μM (β-secretase(BACE) [1]; 1 µM) | % Inhibition (FS) 3 μM (β-secretase(BACE) [1]; 3 µM) [%] | IC50 (β-secretase(BACE) [2]) [µM] | Ki (β-secretase(BACE) [3]; Ki μM (159)) | % Inhibition (FS) 0.3 μM (β-secretase(BACE) [1]) [%] | % Inhibition (FS) 1 μM (β-secretase(BACE) [1]) [%] | % Inhibition (FS) 3 μM (β-secretase(BACE) [1]) [%] |
| --- | --- | --- | --- | --- | --- | --- | --- | --- | --- | --- | --- | --- | --- | --- |
| CC(C)(C)C(=O)NCCN1Cc2cc(Oc3ccccc3)ccc2N=C1N [Compound 141] | 100 | 102 | 0.15 | 0.08 µM | – | – | – | – | – | – | – | – | – | – |
| Cc1noc(C)c1-c1ccc2c(c1)CN(Cc1cccc(C(=O)N(C)C3CCCCC3)c1)C(N)=N2 [Compound 159] | 92 | – | 0.89 | 0.28 µM | 34 | 65 | – | – | – | – | – | – | – | – |
| COc1ccc(NC(=O)C(C)(C)C)c(-c2ccc3c(c2)CN(Cc2cccc(C(=O)N(C)C4CCCCC4)c2)C(N)=N3)c1 [Compound 160] | 102 | – | 0.54 | 0.12 µM | 51 | 78 | – | – | – | – | – | – | – | – |
| CN(C(=O)c1cccc(CN2Cc3cc(-c4ccsc4)ccc3N=C2N)c1)C1CCCCC1 [Compound 164] | 109 | – | 0.11 | 0.1 µM | 67 | 96 | – | – | – | – | – | – | – | – |
| COc1cccc(-c2ccc3c(c2)CN(Cc2cccc(C(=O)N(C)C4CCCCC4)c2)C(N)=N3)c1 [Compound 165] | 101 | – | 0.19 | 0.28 µM | < 30 | 72 | – | – | – | – | – | – | – | – |
| COc1ccccc1-c1ccc2c(c1)CN(Cc1cccc(C(=O)N(C)C3CCCCC3)c1)C(N)=N2 [Compound 167, 3-[2-Amino-6-(2-methoxy-phenyl)-4H-quinazolin-3-ylmethyl]-N-cyclohexyl-N-methyl-benzamide] | 113 | – | 0.014 | 0.03 µM and 0.05 µM | 100 | 112 | 91% | 110% | 118 | – | – | – | – | – |
| CN(C(=O)c1cccc(CN2Cc3cc(-c4ccccc4O)ccc3N=C2N)c1)C1CCCCC1 [Compound 169] | 109 | – | 0.058 | 0.08 µM | 80 | 104 | – | – | – | – | – | – | – | – |
| CN(C(=O)c1cccc(CN2Cc3cc(-c4ccccc4CO)ccc3N=C2N)c1)C1CCCCC1 [Compound 174] | 111 | – | 0.085 | 0.07 µM | 85 | 106 | – | – | – | – | – | – | – | – |
| NC1=Nc2ccc(Oc3ccccc3)cc2CN1CCC(=O)NC1CCCCC1 [Compound 178] | 107 | – | 0.19 | 0.11 µM | 50 | 93 | – | – | – | – | – | – | – | – |
| CCCC(CCC)C(=O)NCCN1Cc2cc(Oc3ccccc3)ccc2N=C1N [Compound 183] | 106 | – | 0.058 | 0.19 µM | 48 | 93 | – | – | – | – | – | – | – | – |
| NC1=Nc2ccc(Oc3ccccc3)cc2CN1CCNC(=O)C1(c2ccc(Cl)cc2)CCCC1 [Compound 196] | 120 | – | 0.015 | 0.11 µM | 65 | 96 | – | – | – | – | – | – | – | – |
| CCC(c1cccc(C(=O)N(C)C2CCCCC2)c1)N1Cc2cc(Oc3ccccc3)ccc2N=C1N (stereo not drawn) [Compound 204, 3-[1-(2-Amino-6-phenoxy-4H-quinazolin-3-yl)-propyl]-N-cyclohexyl-N-methyl-benzamide] | 107 | – | 0.062 | 0.23 µM | – | – | <30% and 54% | 66% and 97% | 115 | – | – | – | – | – |
| NC1=Nc2ccc(Oc3ccccc3)cc2CN1CCNC(=O)NC12CC3CC(CC(C3)C1)C2 [Compound 206, 1-Adamantan-1-yl-3-[2-(2-amino-6-phenoxy-4H-quinazolin-3-yl)-ethyl]-urea] | 106 | – | 0.078 | 0.27 µM | < 30 | 62 | – | – | – | – | – | – | – | – |
| NC1=Nc2ccc(Oc3ccccc3)cc2CN1CCNC(=S)NC12CC3CC(CC(C3)C1)C2 [Compound 214, 1-Adamantan-1-yl-3-[2-(2-amino-6-phenoxy-4H-quinazolin-3-yl)-ethyl]-thiourea] | 101 | – | 0.19 | 0.1 µM | < 30 | 70 | – | – | – | – | – | – | – | – |
| NC1=Nc2ccc(Oc3ccccc3)cc2CN1CCNC(=O)NC1CCCCC1 [Compound 215] | 106 | – | 0.23 | 0.4 µM | 39 | 71 | – | – | – | – | – | – | – | – |
| CC1CCCCC1C(=O)NCCN1Cc2cc(Oc3ccccc3)ccc2N=C1N (stereo not drawn) [Compound 218] | 114 | – | 0.13 | 0.1 µM | 75 | 101 | – | – | – | – | – | – | – | – |
| COC1CCCC(C(=O)NCCN2Cc3cc(Oc4ccccc4)ccc3N=C2N)C1 (stereo not drawn) [Compound 219] | 108 | – | 0.31 | 0.17 µM | 51 | 85 | – | – | – | – | – | – | – | – |
| CC(C)OC(=O)NCCN1Cc2cc(Oc3ccccc3)ccc2N=C1N [Compound 220, [2-(2-Amino-6-phenoxy-4H-quinazolin-3-yl)-ethyl]-carbamic acid isopropyl ester] | 102 | – | 0.45 | 0.2 µM | 103 | 72 | – | – | – | – | – | – | – | – |
| NC1=Nc2ccc(Oc3ccccc3)cc2CN1CCC(=O)NC1C2CC3CC(C2)CC1C3 (stereo not drawn) [Compound 221, N-Adamantan-2-yl-3-(2-amino-6-phenoxy-4H-quinazolin-3-yl) propionamide] | 118 | – | 0.011 | – | 100 | 115 | 110% | 119% | 121 | 0.023 | 0.025 µM and 0.029 µM | – | – | – |
| COc1ccccc1-c1ccc2c(c1)CN(C(CCC(=O)N(C)C1CCCCC1)C1CCCCC1)C(N)=N2 (stereo not drawn) [Compound 227] | 116 | – | 0.043 | 0.065 µM | 86 | 109 | – | – | – | – | – | – | – | – |
| CC(C)(C)OC(=O)NCC(c1ccccc1)N1Cc2cc(Oc3ccccc3)ccc2N=C1N (stereo not drawn) [Compound 258] | – | – | 0.39 | 0.33 µM | – | – | – | – | – | – | – | <30 | 46 | 72 |
| CN(C(=O)c1cccc(CN2Cc3cc(-c4c(Cl)cccc4Cl)ccc3N=C2N)c1)C1CCCCC1 [Compound 259] | 97 | – | 0.25 | 0.25 µM | < 30 | 66 | – | – | – | – | – | – | – | – |
| CN(C(=O)c1cccc(CN2Cc3cc(-c4ccccc4Cl)ccc3N=C2N)c1)C1CCCCC1 [Compound 260] | 112 | – | 0.15 | 0.21 µM | 53 | 86 | – | – | – | – | – | – | – | – |
| NC1=Nc2ccc(Oc3ccccc3)cc2CN1C(CNC(=O)C1CCCCC1)C1CCCCC1 (stereo not drawn) [Compound 294, Cyclohexanecarboxylic acid [2-(2-amino-6-phenoxy-4H-quinazolin-3-yl)-2-cyclohexyl-ethyl]-amide] | 118 | – | 0.016 | 0.02 µM | 94 | 109 | – | – | – | – | – | – | – | – |
| CN(C(=O)CCC(c1ccc(Cl)cc1)N1Cc2cc(Oc3ccccc3)ccc2N=C1N)C1CCCCC1 (stereo not drawn) [Compound 297] | 109 | – | 0.066 | 0.12 µM | < 30 | 76 | – | – | – | – | – | – | – | – |
